According to publication PMC3796444 (PLoS ONE, 2013):

Molecular target: T1, alanine:glyoxylate aminotransferase (AGT), AGT WT (major allele) (Homo sapiens, UniProt P21549)
T1 construct: gene AGXT; His-tagged full-length AGT from pCOLDII, expressed in E. coli BL21, IMAC and SEC; about 90 kDa dimer
T1 sequence (P21549 1-392): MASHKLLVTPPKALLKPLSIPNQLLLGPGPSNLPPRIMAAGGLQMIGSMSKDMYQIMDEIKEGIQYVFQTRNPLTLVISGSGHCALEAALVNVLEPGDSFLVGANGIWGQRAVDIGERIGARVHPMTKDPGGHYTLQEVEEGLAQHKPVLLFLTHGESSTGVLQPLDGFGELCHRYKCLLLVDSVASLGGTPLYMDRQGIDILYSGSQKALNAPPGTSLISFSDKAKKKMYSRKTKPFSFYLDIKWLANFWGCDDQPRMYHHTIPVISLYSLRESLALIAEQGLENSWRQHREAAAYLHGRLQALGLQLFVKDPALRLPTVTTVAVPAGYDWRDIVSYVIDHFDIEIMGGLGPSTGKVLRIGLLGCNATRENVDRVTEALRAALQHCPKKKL
Experiment: filtration ([…] kDa cut-off) and UV absorption of released PMP
Type: binding
Conditions: holo-enzyme 36 µM monomer with L-Ala, 1 h, 25°C

Structure (SMILES): Cc1ncc(COP(=O)(O)O)c(CN)c1O [PMP]
- % PMP released: ~ 3%
